Measurements from the NIST ThermoML archive (doi:10.1016/j.jct.2016.09.030).

Key:
[1] = xn = mol fraction of the nth substance listed; settings: 100 kPa, Liquid, x2 = 0; for viscosity: Concentric cylinders viscometry; for mass density: Vibrating tube method
[2] = refractive index (Na D-line) (dimensionless); xn = mol fraction of the nth substance listed; settings: 100 kPa, Liquid, Standard Abbe refractometry, x2 = 0
[3] = refractive index (Na D-line) (dimensionless); settings: 100 kPa, Liquid, Standard Abbe refractometry
[4] = 100 kPa, Liquid; for viscosity: Concentric cylinders viscometry; for mass density: Vibrating tube method

CC(C)CO [2-methyl-1-propanol] + CCCCCCCC(=O)OCC
Settings	mass density, [1] [kg/m3]	refractive index, [2]	viscosity, [1] [mPa·s]
288.15 K	805.88	1.3978	4.829
293.15 K	802.03	1.3958	4.052
298.15 K	798.16	1.3937	3.431
303.15 K	794.25	1.3916	2.923
308.15 K	790.31	1.3895	2.505
313.15 K	786.31	1.3874	2.161
318.15 K	782.26	1.3853	1.875
323.15 K	778.14	1.383	1.652

CC(C)CO [2-methyl-1-propanol] + CCOC(=O)CCC(=O)OCC
Settings	mass density, [1] [kg/m3]	refractive index, [2]	viscosity, [1] [mPa·s]
288.15 K	805.88	1.3978	4.829
293.15 K	802.03	1.3958	4.052
298.15 K	798.16	1.3937	3.431
303.15 K	794.25	1.3916	2.923
308.15 K	790.31	1.3895	2.505
313.15 K	786.31	1.3874	2.161
318.15 K	782.26	1.3853	1.875
323.15 K	778.14	1.383	1.652

CC(C)CCO [3-methylbutan-1-ol] + CCCCCCCC(=O)OCC
Settings	mass density, [1] [kg/m3]	refractive index, [2]	viscosity, [1] [mPa·s]
288.15 K	812.29	1.4087	5.057
293.15 K	808.58	1.4067	4.287
298.15 K	804.84	1.4047	3.671
303.15 K	801.09	1.4026	3.155
308.15 K	797.31	1.4005	2.73
313.15 K	793.51	1.3985	2.375
318.15 K	789.67	1.3964	2.076
323.15 K	785.79	1.3943	1.841

CC(C)CCO [3-methylbutan-1-ol] + CCOC(=O)CCC(=O)OCC
Settings	mass density, [1] [kg/m3]	refractive index, [2]	viscosity, [1] [mPa·s]
288.15 K	812.29	1.4087	5.057
293.15 K	808.58	1.4067	4.287
298.15 K	804.84	1.4047	3.671
303.15 K	801.09	1.4026	3.155
308.15 K	797.31	1.4005	2.73
313.15 K	793.51	1.3985	2.375
318.15 K	789.67	1.3964	2.076
323.15 K	785.79	1.3943	1.841

CCCCCCCC(=O)OCC [ethyl octanoate]
Settings	mass density, [4] [kg/m3]	refractive index, [3]	viscosity, [4] [mPa·s]
288.15 K	870.88	1.4199	1.686
293.15 K	866.58	1.4177	1.537
298.15 K	862.28	1.4155	1.41
303.15 K	857.98	1.4132	1.298
308.15 K	853.68	1.411	1.2
313.15 K	849.37	1.4088	1.118
318.15 K	845.06	1.4066	1.035
323.15 K	840.74	1.4044	0.9708
